Molecular target: T1, bovine F1Fo-ATPase (F-ATP synthase), F1 catalytic site (Bos taurus, UniProt P00829+P19483)
T1 construct: gene ATP5F1B; native purification from heart mitochondria; with ATP synthase F(1) complex subunit gamma, mitochondrial; ATP synthase F(1) complex subunit delta, mitochondrial; ATP synthase F(1) complex subunit epsilon, mitochondrial; ATP synthase F(0) complex subunit C1, mitochondrial (subunit c); ATP synthase F(0) complex subunit a; ATP synthase subunit O, mitochondrial (OSCP); ATP synthase F(0) complex subunit B1, mitochondrial (subunit b); ATP synthase subunit d, mitochondrial; ATP synthase-coupling factor 6, mitochondrial (F6); ATP synthase protein 8 (A6L); ATP synthase subunit e, mitochondrial; ATP synthase subunit f, mitochondrial; ATP synthase subunit g, mitochondrial
Test: ATP synthesis in proteoliposomes with bacteriorhodopsin, luciferin-luciferase
Type: biochemical
Settings: turnover only; phosphate, pH 7.4, white light, I1-60GFP present

For Nc1ncnc2c1ncn2[C@@H]1O[C@H](COP(=O)(O)OP(=O)(O)O)[C@@H](O)[C@H]1O [ADP], the “ATP synthesis in proteoliposomes with bacteriorhodopsin, luciferin-luciferase” value was “On illumination with white light, ATP was synthesized in a linear manner”.

Source: publication PMC3603449, “The affinity purification and characterization of ATP synthase complexes from mitochondria” (Open Biology, 2013)
